Results on twelve compounds are retold here after patent US9790211B2, “5-amino-quinoline-8-carboxamide derivatives as 5-HT4 receptor agonists” (SUVEN LIFE SCIENCES LIMITED, priority 2013, dated 2017).

The subject of one assay is Aβ1-40. The assay can be described thus: Effect on CSF Aβ1-40 level (ELISA). Format: in vivo, Male Sprague Dawley Rat. The conditions noted are these: 50.0 mg/kg p.o., positive control. On the procedure:
The control group of male rats received a vehicle (reagent grade water) per orally by gavage at a dose volume of 10 mL/kg. The treated groups (6 rat per group) received a single dose of test compound (different doses) or DAPT (50.0 mg/kg). Two hour post dose of vehicle or test compounds, rats were anesthetized with isoflurane and CSF was collected from Cisterna magna using 0.5 mL syringes by utilizing stereotaxic frame. The CSF samples were frozen in liquid nitrogen and stored at −80° C. until ELISA was performed.
• 1. CSF samples were thawed to RT and diluted with Tris Buffer Saline containing protease inhibitors at 1:10 ratio 115:150 μL (15 μL CSI+135 μL TBS. • 2. To this diluted CSF samples 0.15 mL of EIA buffer (1:1 ratio) was added. These diluted samples were subjected for Aβ1-40 level measurement by ELISA. Measurement of Aβ1-40 by ELISA Kit:
To investigate the role of an acute treatment of test compound on Aβ1-40 levels, expression of this protein in CSF was measured in treated and untreated rat by ELISA assay. The entire procedure was followed as per ELISA kit manual (Mouse/Rat Amyloid-Aβ1-40 ELISA, Cat No: 27721, IBL International, Hamburg, Germany).
Statistical analysis was performed using the Graph Pad Prism (Version 4). Data are Mean±SD of Aβ1-40 levels expressed as percentage of control values (rat which received regent grade water). Values were compared between the different groups by using unpaired t test. The significance level was set at *p<0.05; **p<0.01; ***p<0.001.
(In general: An ELISA detects its analyte on a solid surface through an enzyme-linked reagent.)

The next assay concerns Aβ1-42. The assay can be described thus: Effect on CSF Aβ1-42 level (ELISA). In kind it is in vivo, Male Sprague Dawley Rat. The conditions noted are these: 50.0 mg/kg p.o., positive control. On the procedure: The control group of male rats received a vehicle (reagent grade water) per orally by gavage at a dose volume of 10 mL/kg. The treated groups (6 rat per group) received a single dose of test compound (different doses) or DAPT (50.0 mg/kg). Two hour post dose of vehicle or test compounds, rats were anesthetized with isoflurane and CSF was collected by puncturing Cisterna magna using 0.5 mL syringes by utilizing stereotaxic frame. CSF samples were frozen in liquid nitrogen and stored at −80° C. until ELISA was performed.
• 1. CSF samples were thawed to RT and diluted with Tris Buffer Saline containing protease inhibitors at 1:10 ratio [15:150 μL (15 μL CSF+ 135 μL TBS], • 2. To this diluted CSF samples 0.15 mL of EIA buffer (1:1 ratio) was added. These diluted samples were subjected for Aβ1-42 level measurement by ELISA. Measurement of Aβ1-42 by ELISA Kit:
To investigate the role of an acute treatment of test compound on Aβ1-42 levels, expression of this protein was measured in CSF of treated and untreated rat by ELISA assay. The entire procedure was followed as described in ELISA kit manual (Mouse/Rat […], Cat No: 27720, IBL International, Hamburg, Germany).
Statistical analyses were performed using the Graph Pad Prism (Version 4). Data are Mean±SD of Aβ1-42 levels expressed as percentage of control values (rat which received regent grade water). Values were compared between the different groups by unpaired t test. The significance level was set at *p<0.05; **p<0.01; ***p<0.001.

The test system of a further assay is Male Wistar rats. The assay can be described thus: Object recognition task model. Format: in vivo. The conditions noted are these: dose mg/kg: Ex 1 0.1, Ex 2 0.03, Ex 4 0.03, Ex 13 1, Ex 23 0.01, Ex 37 10, Ex 43 0.3. On the procedure: The cognition enhancing properties of compounds of this invention were estimated by using this model.
Male Wistar rats (230-280 grams) were used as experimental animals. Four animals were housed in each cage. Animals were kept on 20% food deprivation before one day and given water ad libitum throughout the experiment and maintained on a 12 hours light/dark cycle. Also the rats were habituated to individual arenas for 1 hour in the absence of any objects.
One group of 12 rats received vehicle (1 mL/Kg) orally and another set of animals received compound of the formula (I) either orally or i.p., before one hour of the familiar (T1) and choice trial (T2).
The experiment was carried out in a 50×50×50 cm open field made up of acrylic. In the familiarization phase, (T1), the rats were placed individually in the open field for 3 minutes, in which two identical objects (plastic bottles, 12.5 cm height×5.5 cm diameter) covered in yellow masking tape alone (a1 and a2) were positioned in two adjacent corners, 10 cms from the walls. After 24 hours of the (T1) trial for long-term memory test, the same rats were placed in the same arena as they were placed in T1 trial. Choice phase (T2) rats were allowed to explore the open field for 3 minutes in presence of one familiar object (a3) and one novel object (b) (Amber color glass bottle, 12 cm high and 5 cm in diameter). Familiar objects presented similar textures, colors and sizes. During the T1 and T2 trial, explorations of each object (defined as sniffing, licking, chewing or having moving vibrissae whilst directing the nose towards the object at a distance of less than 1 cm) were recorded separately by stopwatch. Sitting on an object was not regarded as exploratory activity, however, it was rarely observed.
T1 is the total time spent exploring the familiar objects (a1+a2).
T2 is the total time spent exploring the familiar object and novel object (a3+b).
The object recognition test was performed as described by Behaviour Brain Research, (1988), 31, 47-59.

The target of assay [1] is T1, recombinant human 5-HT4 receptor (Homo sapiens, UniProt Q13639).
T1 construct: expressed in transfected cells
T1 sequence (Q13639 whole entry): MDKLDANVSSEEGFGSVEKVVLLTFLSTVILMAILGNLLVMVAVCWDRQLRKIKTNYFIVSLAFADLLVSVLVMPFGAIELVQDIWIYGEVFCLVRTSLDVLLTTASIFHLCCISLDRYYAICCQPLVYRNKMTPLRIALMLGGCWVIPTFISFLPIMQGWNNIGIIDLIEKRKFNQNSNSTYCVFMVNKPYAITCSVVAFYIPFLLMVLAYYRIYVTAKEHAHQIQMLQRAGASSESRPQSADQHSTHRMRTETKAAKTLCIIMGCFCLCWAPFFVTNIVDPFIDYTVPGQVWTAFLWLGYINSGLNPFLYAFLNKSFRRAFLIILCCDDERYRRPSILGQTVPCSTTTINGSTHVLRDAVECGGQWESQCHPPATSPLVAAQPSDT
The assay can be described thus: Determination of EC50 values for 5-HT4 receptor (CHO cells, pCRE-Luc reporter). Format: cell-based. The conditions noted are these: for EC50: 4 hours incubation. The procedure:
Determination of EC50 Values for 5-HT4 Receptor
A stable CHO cell line expressing recombinant human 5-HT4 receptor and pCRE-Luc reporter system was used for cell-based assay. The assay offers a non-radioactive based approach to determine binding of a compound to GPCRs. In this specific assay, the level of intracellular cyclic AMP, which is modulated by activation, or inhibition of the receptor is measured. The recombinant cells harbor luciferase reporter gene under the control of cAMP response element.
The above cells were grown in 96 well clear bottom white plates in Hams F12 medium containing 10% fetal bovine serum (FBS). Prior to the addition of compounds or standard agonist, cells were serum starved overnight. Increasing concentrations of test compounds were added in OptiMEM medium to the cells. The incubation was continued at 37° C. in CO2 incubator for 4 hours. Medium was removed and cells were washed with phosphate buffered saline. The cells were lysed and luciferase activity was measured in a Luminometer. Luminescence units were plotted against the compound concentrations using Graphpad software.

Where [2] appears, read: CHO cells, human 5-HT4 receptor, luciferase reporter.
Where [3] appears, read: CHO, CHO cells, human 5-HT4 receptor, luciferase reporter, read-out: Emax.

Each structure is given as a SMILES string. Like-named read-outs stand apart in the source and are kept apart here.

For the compound `C[C@H](NC(=O)Cc1cc(F)cc(F)c1)C(=O)N[C@H](C(=O)OC(C)(C)C)c1ccccc1` [DAPT, reference compound], the “level of Aβ1-40 in rat CSF (in words)” value with Aβ1-40 is “significantly decreased”. Besides, in the assay on Aβ1-42, the “levels of Aβ1-42 in rat CSF (in words)” value is reported as “significantly decreased”.
`Nc1c(Cl)cc(C(=O)NCC2CCN(CC3CCOC3)CC2)c2ncccc12.O=C(O)C(O)C(O)C(=O)O` (racemic) [Example 4, (R,S) 5-Amino-6-chloro-N-{[1-(tetrahydro-3-furanylmethyl)-4-piperidinyl]methyl} quinoline-8-carboxamide L(+)-tartarate]: in the assay on Male Wistar rats (choice trial T2, p.o.), the “Exploration time mean ± S.E.M, Familiar object” value was determined as 6.96 ± 1.02 s and the “Exploration time mean ± S.E.M, Novel object” value turned out to be 12.37 ± 1.22 s. In the assay on Male Wistar rats (p.o.), the Inference entry is given as “Active”. For the same compound, the Emax in assay [1] (CHO) is 56%. For the same compound, the EC50 in assay [1] (setting [2]) came out at 0.05 nM.
As for `Nc1c(Cl)cc(C(=O)NCC2[C@H]3CN(CC4CCOCC4)C[C@@H]23)c2ncccc12` (mixture of isomers) [Example 15, 5-Amino-6-chloro-N-{[3-(tetrahydro-2H-pyran-4-ylmethyl)-3-azabicyclo[3.1.0]hex-6-yl]methyl}quinoline-8-carboxamide (exo/endo mixture)], the EC50 in assay [1] (setting [2]) came to 0.5 nM. Moreover, the Emax in assay [1] (setting [3]) worked out at 54%.
In the case of `COCCCN1CC2C(CNC(=O)c3cc(Cl)c(N)c4cccnc34)C2C1` (stereo not drawn) [Example 54, 5-Amino-6-chloro-N-{[3-(3-methoxypropyl)-3-azabicyclo[3.1.0]hex-6-yl]methyl}quinoline-8-carboxamide L(+)-tartarate], in assay [1] (CHO), the Emax stood at 70%. Moreover, the EC50 in assay [1] (setting [2]) worked out at 0.7 nM.
The like results for `Nc1c(Cl)cc(C(=O)NCC2CCN(CC3(F)CCOCC3)CC2)c2ncccc12` [Example 30, 5-Amino-6-chloro-N-{[1-(4-fluorotetrahydro-2-pyran-4-ylmethyl)-4-piperidinyl]methyl}quinoline-8-carboxamide L(+)tartarate] were, in that order, 65% and 0.1 nM.
The like results for `Nc1c(F)cc(C(=O)NCC2CCN(CC3(O)CCOCC3)CC2)c2ncccc12` [Example 28] were, in that order, 66% and 0.1 nM.
For the compound `Nc1c(Cl)cc(C(=O)NCC2CCN(CCF)CC2)c2ncccc12` [Example 52, 5-Amino-6-chloro-N-{[1-(2-fluoroethyl)-4-piperidinyl]methyl}quinoline-8-carboxamide], the EC50 in assay [1] (setting [2]) stood at 0.41 nM. For the same compound, the Emax in assay [1] (setting [3]) was 63%.
Consider `CC(C)(O)CN1CCC(CNC(=O)c2cc(F)c(N)c3cccnc23)CC1` [Example 41, 5-Amino-6-fluoro-N-{[1-(2-hydroxy-2-methylpropyl)-4-piperidinyl]methyl}quinoline-8-carboxamide L(+)-tartarate], for which the maximal effect (Emax) in assay [1] (CHO) was 64%. Besides, the EC50 in assay [1] (setting [2]) is 0.2 nM.
As for `COC(=O)C(C)(C)CN1CCC(CNC(=O)c2cc(Cl)c(N)c3cccnc23)CC1` [Example 31, 5-Amino-6-chloro-N-{[1-(2-methoxycarbonyl-2-methylpropan-1-yl)-4-piperidinyl]methyl}quinoline-8-carboxamide], in assay [1] (setting [2]), the EC50 amounted to 0.3 nM. In addition, the Emax in assay [1] (setting [3]) was found to be 60%.
For the compound `CC(C)(O)CN1CCC(F)(CNC(=O)c2cc(Cl)c(N)c3cccnc23)CC1.Cl` [Example 38, 5-Amino-6-chloro-N-{[4-fluoro-1-(2-hydroxy-2-methylpropyl)-4-piperidinyl]methyl} quinoline-8-carboxamide hydrochloride], in assay [1] (setting [2]), the Emax is recorded as 54% and the EC50 turned out to be 1.3 nM.
For `Nc1c(Cl)cc(C(=O)NCC2C3CN(CC4CCOC4)CC23)c2ncccc12` (stereo not drawn) [Example 7, 5-Amino-6-chloro-N-{[3-(tetrahydro-3-furanylmethyl)-3-azabicyclo[3.1.0]hex-6-yl]methyl}quinoline-8-carboxamide], in assay [1] (setting [2]), the EC50 was 0.57 nM. The maximum response (Emax) in assay [1] (setting [3]) was 71%.
`Nc1c(Cl)cc(C(=O)NCC2(F)CCN(CC3CCOCC3)CC2)c2ncccc12` [Example 20, 5-Amino-6-chloro-N-{[4-fluoro-1-(tetrahydro-2H-pyran-4-ylmethyl)-4-piperidinyl]methyl}quinoline-8-carboxamide L(+)-tartarate]: the Emax in assay [1] (CHO) turned out to be 58%. Also, the EC50 in assay [1] (setting [2]) is 1.1 nM.

The Emax is the maximal effect, on the per cent scale that the assay sets. For orientation: EC50 means the concentration giving half of the maximal effect.
